Reference: patent US7744936B2, “Method for preparing extract from wild ginseng showing anticancer activity and the composition comprising the same” (Seocksanteo Medical Co., Ltd., priority 2004, dated 2010)
In brackets after ≈: the same amount, converted by molar mass.

What was measured:
splenic leucocytes = test: Immunostimulating effect on splenic leucocytes (flow cytometry); format: cell-based, BALB c mouse; conditions: 3 days
Method: To determine the immunostimulating effect of the extract of the present invention, splenic leucocytes (1×10^6 cells/ml) of BALB c mouse were suspended in RPMI1640 medium (Gibco BRL Co., Ltd., USA) supplemented with 100 μg/ml of streptomycin, 100 U/ml of penicillin and 10% fetal bovine serum, and treated with 200 μl/ml of the extracts of Comparative Example 1, 2 and Example 1, 2, respectively. The solution was incubated at 37° C. in 5% CO2 and 95% air condition in a humidified incubator for 3 days and the formation of leucocytes was determined by Flow cytometry. 200 μg/ml of adriamycin treatment group was used as control group.

[1] = tested on: A549 cells (human lung cancer cell line); test: MTT cell cytotoxicity on A549 cells; format: cell-based; conditions: 48 hours, adriamycin, read-out: IC50, cytotoxic effect on A549 cells (text, printed A5497)
Method: (§1) U937 cells (human leukemia cell line), A549 cells (human lung cancer cell line) and MDA-MB-231 (human breast cancer cell line) cells were grown on the culture dish having 100 mm diameter (TPP Co., Ltd., Switzerland) in RPMI1640 (Gibco BRL Co., Ltd., USA), supplemented with 10% fetal bovine serum which was inactivated at 37° C. in 5% CO2 and 95% air condition in a humidified incubator. […] Cells on […] culture dish were treated with 500 μl of trypsin-EDTA (Gibco BRL Co., Ltd., U.S.A.) to separate from the dish and 10 ml of fresh medium was added thereto so as to neutralize trypsin-EDTA solution and obtain cell suspension. 1×10^4 cells/well were seeded in 96-well plate and after 24 hours incubation. […] The plate was incubated for 20 minutes at room temperature and then UV absorbance the samples was measured by microplate reader (ELISA reader, DENLEY Co., Japan) to calculate the cell viability at 570 nm. The cell viability rate of negative control group treated with only medium was calculated as a 100% and those of other sample and positive control were calculated. […] The measured absorbance showing the reduced amount of existing cellular enzyme in MTT was proportioned to survival cell density. […]

[2] = tested on: U937 cells (human leukemia cell line); test: MTT cell cytotoxicity on U937 cells; format: cell-based; conditions: U-937, 48 hours, adriamycin, read-out: IC50, cytotoxic effect on U937 cells
Method: as §1

[3] = tested on: Lewis lung carcinoma cells; test: Inhibition of tumor volume increase, Lewis lung carcinoma in mice; format: in vivo, BDF-1 male mice; conditions: 0.5 mg/mouse intraperitoneally, 2 weeks
Method: To determine the inhibitory effect on the volumetric increase of cancer cell, following experiment was performed by modifying the procedure disclosed in the literature (Teruhiro et al., Cancer Res., 56, pp 2809-14, 1996).
Lewis lung carcinoma cells (1×10^6 cells/well) which had been sub-cultured in vivo of experimental mouse and adjusted the concentration to 1×10^6 cells/well, was injected into the left armpit of BDF-1 male mice (6-week-old). After 24 hours, adriamycin in the concentration of 0.5 and 1 mg/mouse, and the extracts prepared in Comparative Example 1, 2 and Example 1, 2 in the concentration of 50 and 100 μl/mouse were injected into the mice intraperitoneally. The injection of samples was maintained for 2 weeks until the tumor volume of non-treatment group used as control group become to 2 cm^3. After 2 weeks, the tumor volume was calculated by using following mathematical formulae 1 and 2 to measure the inhibition rate of tumor volume.
[formula] L (cm): Length of the tumor W^2 (cm^2): Width of the tumor
[formula] A: Tumor volume (cm^3) of control group B: Tumor volume (cm^3) of sample treatment group

[4] = tested on: MDA-MB-231 (human breast cancer cell line); test: MTT cell cytotoxicity on MDA-MB-231 cells; format: cell-based; conditions: 48 hours, adriamycin, read-out: IC50, cytotoxic effect on MDA-MB-231 cells
Method: as §1

`COc1cccc2c1C(=O)c1c(O)c3c(c(O)c1C2=O)C[C@@](O)(C(=O)CO)C[C@@H]3O[C@H]1C[C@H](N)[C@H](O)[C@H](C)O1` [Adriamycin, adriamycin] was tested. Which “Decrease of immunity” value (splenic leucocytes; 200 μg/ml adriamycin) did it give?
The value was 26.1%.

What about the “Increase rate of lymphocyte (%)” value (splenic leucocytes; concentration 200 μg/ml) of the same compound?
Its value is −21.6%.

What about the IC50 [1] of the same compound?
Its IC50 is 3 µg/mL (≈ 5.52 µM).

And the IC50 [2]?
Its IC50 is 3 µg/mL (≈ 5.52 µM).

And the “Inhibition effect (%) on tumor volume” value [3]?
The value was 31.20 ± 8.05%.

And the IC50 [4]?
The IC50 was 3 µg/mL (≈ 5.52 µM).
